Counter-ions that a name gives are not always drawn. Like-named read-outs stand apart in the source and are kept apart here.
Legend:
[1] = test system: cultured human mast cells (CHMC), IgE-induced degranulation; experiment: CHMC low cell density IgE activation: tryptase assay; assay type: cell-based
Summary of the method: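 Cord-blood CD34+-derived mucosal mast cells (SCF/IL-6 medium), 1000–1500 cells/well, preincubated with compound 1 h at 37°C, then anti-IgE stimulated 30 min at 37°C.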

[2] = test system: cultured human mast cells (CHMC), ionomycin-induced degranulation; experiment: CHMC low cell density ionomycin activation: tryptase assay; assay type: cell-based; settings: read-out: LD Tryptase, CHMC, Iono, 3pt
[3] = CHMC low cell density, 3pt, read-out: LD Tryptase, CHMC, IgE, 3pt
[4] = CHMC low cell density, 8pt, read-out: LD Tryptase, CHMC, IgE, 8pt
[5] = CHMC low cell density, ionomycin activation, 3pt
[6] = low cell density CHMC, 3pt, read-out: LD Tryptase, CHMC, IgE, 3pt
[7] = low cell density CHMC, ionomycin activation (2 μM final), 3pt
[8] = low cell density CHMC, 8-point, read-out: LD Tryptase, CHMC, IgE, 8pt
[9] = low cell density CHMC, ionomycin activation, 3-point
[10] = low cell density CHMC, 3-point, read-out: LD Tryptase, CHMC, IgE, 3pt
[11] = low cell density CHMC, 8pt, read-out: LD Tryptase, CHMC, IgE, 8pt
[12] = low cell density CHMC, ionomycin activation, 3pt

Compound | IC50 [1, 3] | IC50 [1, 4] | IC50 [2, 5] | IC50 [1, 8] | IC50 [2, 9] | IC50 [1, 10] | further results
COC(=O)Cn1ccc2cc(Nc3ncc(F)c(Nc4ccc5c(c4)NC(=O)C(C)(C)O5)n3)ccc21 [Compound 643, N4-(2,2-Dimethyl-3-oxo-4H-benz[1,4]oxazin-6-yl)-5-fluoro-N2-[1-(methoxycarbonylmethylene)indol-5-yl]-2,4-pyrimidinediamine] | < 10 µM | < 10 µM | > 10 µM |  |  |  | 
N4-(2,2-Difluoro-3-oxo-4H-benz[1,4]oxazin-6-yl)-5-fluoro-N2-[4-[N-(N-methylamino)carbanylmethylene]aminocarbonyl phenyl]-2,4-pyrimidinediamine [Compound 1297] |  |  |  |  |  |  | IC50 [1, 6]: < 10 µM; IC50 [2, 7]: > 10 µM
CC(=O)N1CCN(c2cccc(Nc3ncc(F)c(Nc4ccc5c(c4)OC(F)(F)C(F)(F)O5)n3)c2)CC1 [Compound 431] | < 10 µM | < 10 µM | > 10 µM |  |  |  | 
CNC(=O)Cn1ccc2ccc(Nc3ncc(F)c(Nc4ccc5c(c4)OCCO5)n3)cc21 [Compound 649, N4-(3,4-Ethylenedioxyphenyl)-5-fluoro-N2-[1-(N-methylamino)carbonylmethyleneindol-6-yl]-2,4-pyrimidinediamine] | < 10 µM | < 10 µM | > 10 µM |  |  |  | 
Fc1cnc(Nc2cccc(-c3ncco3)c2)nc1Nc1ccc2c(c1)NCCO2 [Compound 217, N4-(3,4-Dihydro-2H,4H-benz[1,4]oxazin-6-yl)-5-fluoro-N2-[3-(oxazol-2-yl)phenyl]-2,4-pyrimidinediamine] |  |  |  |  |  |  | IC50 [1, 6]: < 10 µM; IC50 [1, 11]: < 10 µM; IC50 [2, 12]: > 10 µM
CNC(=O)COc1cccc(Nc2ncc(F)c(Nc3ccc4c(c3)NC(=O)C(F)(F)O4)n2)c1 [Compound 1045, N4-(2,2-Difluoro-3-oxo-4H-benz[1,4]oxazin-6-yl)-5-fluoro-N2-[3-(N-methylamino)carbonylmethyleneoxyphenyl]-2,4-pyrimidinediamine Hydrogen Chloride Salt] |  |  |  | < 10 µM | > 10 µM | < 10 µM | 
CNC(=O)CNC(=O)c1ccc(Nc2ncc(F)c(Nc3ccc4c(c3)NC(=O)C(C)(C)O4)n2)cc1 [Compound 1295, N4-(2,2-Dimethyl-3-oxo-4H-benz[1,4]oxazin-6-yl)-5-fluaro-N2-[4-[N-(N-methylamino)carbonylmethylene]aminocarbonylphenyl]-2,4-pyrimidinediamine] |  |  |  |  |  |  | IC50 [1, 6]: < 10 µM; IC50 [1, 11]: < 10 µM; IC50 [2, 7]: > 10 µM
CNC(=O)COc1cccc(Nc2ncc(F)c(Nc3ccc4c(c3)NC(=O)CS4)n2)c1 [Compound 254, 5-Fluoro-N2-[3-(N-methylamino)carbonylmethyleneoxyphenyl]-N4-(3-oxo-2H,4H-benzo[1,4]thiazin-6-yl)-2,4-pyrimidinediamine] |  |  |  |  |  |  | IC50 [1, 6]: < 10 µM; IC50 [1, 11]: < 10 µM; IC50 [2, 12]: > 10 µM
CC1(C)Oc2ccc(Nc3nc(Nc4ccc5c(cnn5CCCNS(C)(=O)=O)c4)ncc3F)nc2NC1=O [Compound 836, N4-(2,2-Dimethyl-3-oxo-4H-5-pyrid[1,4]oxazin-6-yl)-5-fluoro-N2-[1-[3-(N-methylsulfonylamino)propyl]indazol-5-yl]-2,4-pyrimidinediamine] | < 10 µM | < 10 µM | > 10 µM |  |  |  | 
Cn1ncc2ccc(Nc3ncc(F)c(Nc4ccc5c(n4)NC(=O)C(C)(C)O5)n3)cc21 [Compound 1057, N4-(2,2-Dimethyl-3-oxo-4H-5-pyrid[1,4]oxazin-6-yl)-5-fluoro-N2-[1-methylindazol-6-yl]-2,4-pyrimidinediamine p-Toluenesulfonic Acid Salt] |  |  |  | < 10 µM | > 10 µM | < 10 µM | 
CNS(=O)(=O)c1ccc(Nc2ncc(F)c(Nc3ccc4c(c3)NC(=O)C(C)(C)O4)n2)cc1OC [Compound 496, N4-(2,2-Dimethyl-3-oxo-4H-benz[1,4]oxazin-6-yl)-5-fluoro-N2-[3-methoxyphenyl-4-(methylamino)sulfonyl]-2,4-pyrimidinediamine] | < 10 µM | < 10 µM | < 10 µM |  |  |  | 

Continued, in another order:

IC50 [1, 3] | IC50 [1, 4] | IC50 [2, 5] | IC50 [1, 8] | IC50 [2, 9] | IC50 [1, 10] | Compound | further results
< 10 µM | < 10 µM | > 10 µM |  |  |  | Cc1cc(Nc2ncc(F)c(Nc3ccc4c(n3)NC(=O)C(C)(C)O4)n2)cc(Cl)c1O [Compound 996, N2-(3-Chloro-4-hydroxy-5-methylphenyl)-N4-(2,2-dimethyl-3-oxo-4H-5-pyrid[1,4]oxazin-6-yl)-5-fluoro-2,4-pyrimidinediamine] | 
 |  |  | < 10 µM | > 10 µM |  | Fc1cnc(Nc2ccc(N3CCOCC3)cc2)nc1Nc1ccc2c(n1)NCCO2 [Compound 1128, N4-(3,4-Dihydro-2H,4H-5-pyrid[1,4]oxazin-6-yl)-5-fluoro-N2-(4-morpholinophenyl)-2,4-pyrimidinediamine] | 
 |  |  | < 10 µM | > 10 µM | < 10 µM | CNC(=O)c1ccc(Nc2ncc(F)c(Nc3ccc4c(n3)NC(=O)C(C)(C)O4)n2)cc1Cl [Compound 1054, N2-[3-Chloro-4-(N-methylamino)carbonylphenyl]-N4-(2,2-dimethyl-3-oxo-4H-5-pyrid[1,4]oxazin-6-yl)-5-fluoro-2,4-pyrimidinediamine] | 
 |  |  |  | > 10 µM | > 10 µM | Fc1cnc(Cl)nc1Nc1ccc2c(n1)NCCO2 [Compound 1117, 2-Chloro-5-fluoro-N4-(3,4-dihydro-2H,4H-5-pyrid[1,4]oxazin-6-yl)-4-pyrimidineamine] | 
 |  |  | < 10 µM | < 10 µM | < 10 µM | CNC(=O)COc1c(C)cc(Nc2ncc(F)c(Nc3ccc4c(n3)NC(=O)C(C)(C)O4)n2)cc1C [Compound 1041, N2-[3,5-Dimethyl-4-(N-methylamino)carbonylmethyleneoxyphenyl]-N4-(2,2-dimethyl-3-oxo-4H-5-pyrid[1,4]oxazin-6-yl)-5-fluoro-2,4-pyrimidinediamine] | 
 | < 10 µM | < 10 µM |  |  |  | CNC(=O)COc1cccc(Nc2ncc(F)c(Nc3ccc4c(c3)NCC(C)(C)O4)n2)c1 [Compound 1000, N4-(3,4-Dihydro-2,2-dimethyl-4H-benz[1,4]oxazin-6-yl)-5-fluoro-N2-[3-(N-methylamino)carbonylmethyleneoxyphenyl]-2,4-pyrimidinediamine] | 
 |  |  | < 10 µM | > 10 µM | < 10 µM | CN1CCN(c2ccc(Nc3ncc(F)c(Nc4ccc5c(n4)NCCO5)n3)cc2)CC1 [Compound 1141, N4-(3,4-Dihydro-2H,4H-5-pyrid[1,4]oxazin-6-yl)-5-fluoro-N2-[4-(4-methylpiperazino)phenyl]-2,4-pyrimidinediamine] | 
< 10 µM |  | > 10 µM |  |  |  | CN1C(=O)C(C)(C)Oc2ccc(Nc3nc(Nc4ccc(-c5ncco5)cc4)ncc3F)nc21 [Compound 1013, 5-Fluoro-N2-[4-(oxazol-2-yl)phenyl]-N4-[3-oxo-2,2,4-trimethyl-5-pyrid[1,4]oxazin-6-yl]-2,4-pyrimidinediamine] | 
